Key:
[1] = target: NAMPT (human, recombinant, C-terminally His-tagged) (Homo sapiens, UniProt P43490); assay: Time-Resolved Fluorescence Resonance Energy Transfer (TR-FRET) Binding Assay of NAMPT; details: 6.8 nM NAMPT, 200 nM probe, equilibrated 3 hours, absence of substrates
Procedure, shortened: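 Recombinant C-terminally His-tagged human NAMPT (6.8 nM) incubated 3 h at room temperature with 200 nM Oregon Green 488–labelled nicotinamide-competitive probe and 1 nM Tb-anti-His antibody in HEPES pH 7.5, 2% DMSO. TR-FRET ratio Em520/Em495 normalized to controls; IC50 from four-parameter logistic fit.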

NAMPT = NAMPT (Homo sapiens, UniProt P43490); assay: Time-Resolved Fluorescence Resonance Energy Transfer (TR-FRET) Binding Assay of NAMPT with PRPP; details: 2 nM NAMPT, 2 nM probe, 200 uM PRPP and 2.5 mM ATP, equilibrated 16 hours
Sequence of NAMPT (P43490 whole entry): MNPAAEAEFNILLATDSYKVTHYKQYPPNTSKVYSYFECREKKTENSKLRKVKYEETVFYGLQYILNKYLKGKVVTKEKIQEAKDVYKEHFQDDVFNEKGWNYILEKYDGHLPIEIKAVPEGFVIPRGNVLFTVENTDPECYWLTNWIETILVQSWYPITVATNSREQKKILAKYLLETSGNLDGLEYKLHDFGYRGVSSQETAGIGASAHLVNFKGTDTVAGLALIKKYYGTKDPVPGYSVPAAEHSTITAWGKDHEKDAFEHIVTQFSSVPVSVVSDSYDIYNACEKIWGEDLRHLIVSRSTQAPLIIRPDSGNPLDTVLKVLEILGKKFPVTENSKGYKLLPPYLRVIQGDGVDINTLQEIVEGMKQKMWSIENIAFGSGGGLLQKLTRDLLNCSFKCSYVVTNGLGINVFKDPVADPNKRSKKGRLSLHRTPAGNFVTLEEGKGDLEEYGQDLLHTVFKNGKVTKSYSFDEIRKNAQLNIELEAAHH
Procedure, shortened: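 Final mix: 2 nM NAMPT, 2 nM probe, 1 nM Tb-anti-His antibody, 200 uM PRPP, 2.5 mM ATP, 2% DMSO in 1× assay buffer. Equilibrated 16 hours before TR-FRET read, allowing possible enzymatic modification of compounds.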

Sequence of NAMPT (human, recombinant, C-terminally His-tagged) (P43490 whole entry): as above

| IC50 [1] | IC50 (NAMPT) | Structure (SMILES) |
| --- | --- | --- |
| 6.63 nM | 0.169 nM | CC1(C(=O)N2CCC(c3ccc(NC(=O)C4CN(c5cccnc5)C4)cc3)CC2)CC1 [Example 110, N-(4-{1-[(1-methylcyclopropyl)carbonyl]piperidin-4-yl}phenyl)-1-(pyridin-3-yl)azetidine-3-carboxamide] |
| 78 nM | 25.2 nM | O=C(Nc1ccc(OC2CCN(C(=O)c3ccc(F)cc3)CC2)cc1)C1CN(c2ccnnc2)C1 [Example 271, N-(4-{[1-(4-fluorobenzoyl)piperidin-4-yl]oxy}phenyl)-1-(pyridazin-4-yl)azetidine-3-carboxamide] |
| 449 nM | 0.916 nM | CC(=O)N1CCC(Oc2ccc(NC(=O)C3CN(c4cccnn4)C3)cc2)CC1 [Example 244, -{4-[(1-acetylpiperidin-4-yl)oxy]phenyl}-1-(pyridazin-3-yl)azetidine-3-carboxamide] |
| 2270 nM | 206 nM | Cc1ncccc1N1CC(C(=O)Nc2ccc(C3CCN(C(=O)CN4CCCC4)CC3)cc2)C1 [Example 166, 1-(2-methylpyridin-3-yl)-N-{4-[1-(pyrrolidin-1-ylacetyl)piperidin-4-yl]phenyl}azetidine-3-carboxamide] |
| 134 nM | 0.639 nM | CC(C)C(=O)N1CCC(Oc2ccc(NC(=O)C3CN(c4cccnn4)C3)cc2)CC1 [Example 253, N-(4-{[1-(2-methylpropanoyl)piperidin-4-yl]oxy}phenyl)-1-(pyridazin-3-yl)azetidine-3-carboxamide] |
| 743 nM | 184 nM | CCOCC(=O)N1CCC(c2ccc(NC(=O)C3CN(c4cccnc4C)C3)cc2)CC1 [Example 191, N-{4-[1-(ethoxyacetyl)piperidin-4-yl]phenyl}-1-(2-methylpyridin-3-yl)azetidine-3-carboxamide] |
| 266 nM | 122 nM | Cc1ncccc1N1CC(C(=O)Nc2ccc(C3CCN(C(=O)c4cccc(Cl)c4)CC3)cc2)C1 [Example 153, N-{4-[1-(3-chlorobenzoyl)piperidin-4-yl]phenyl}-1-(2-methylpyridin-3-yl)azetidine-3-carboxamide] |
| 66.1 nM | 1.02 nM | O=C(Nc1ccc(OC2CCN(C(=O)C3CCCCC3)CC2)cc1)C1CN(c2cccnc2)C1 [Example 49, N-(4-{[1-(cyclohexylcarbonyl)piperidin-4-yl]oxy}phenyl)-1-(pyridin-3-yl)azetidine-3-carboxamide] |
| 86 nM | 1.02 nM | O=C(Nc1ccc(OC2CCN(C(=O)Cc3ccccc3F)CC2)cc1)C1CN(c2cccnn2)C1 [Example 247, N-[4-({1-[(2-fluorophenyl)acetyl]piperidin-4-yl}oxy)phenyl]-1-(pyridazin-3-yl)azetidine-3-carboxamide] |
| 2740 nM | 5.32 nM | O=C(Nc1ccc(OC2CCN(C(=O)CC(F)(F)F)CC2)cc1)[C@H]1CCN(c2cccnc2)C1 [Example 18, (3S)-1-(pyridin-3-yl)-N-(4-{[1-(3,3,3-trifluoropropanoyl)piperidin-4-yl]oxy}phenyl)pyrrolidine-3-carboxamide] |
| 71.4 nM | 0.886 nM | CCCCC(=O)N1CCC(Oc2ccc(NC(=O)C3CN(c4cccnc4)C3)cc2)CC1 [Example 34, N-{4-[(1-pentanoylpiperidin-4-yl)oxy]phenyl}-1-(pyridin-3-yl)azetidine-3-carboxamide] |

More lines, now with the values behind:

| Structure (SMILES) | IC50 [1] | IC50 (NAMPT) |
| --- | --- | --- |
| O=C(Nc1ccc(OC2CCN(C(=O)CC3CC3)CC2)cc1)C1CN(c2cccnn2)C1 [Example 233, N-(4-{[1-(cyclopropylacetyl)piperidin-4-yl]oxy}phenyl)-1-(pyridazin-3-yl)azetidine-3-carboxamide] | 113 nM | 0.614 nM |
| CCCC(C)C(=O)N1CCC(c2ccc(NC(=O)C3CN(c4cccnn4)C3)cc2)CC1 (stereo not drawn) [Example 322, N-{4-[1-(2-methylpentanoyl)piperidin-4-yl]phenyl}-1-(pyridazin-3-yl)azetidine-3-carboxamide] | 28.6 nM | 0.843 nM |
| O=C(Nc1ccc(C2CCN(C(=O)c3ccc(O)cc3)CC2)cc1)C1CN(c2cccnn2)C1 [Example 344, N-{4-[1-(4-hydroxybenzoyl)piperidin-4-yl]phenyl}-1-(pyridazin-3-yl)azetidine-3-carboxamide] | 37.8 nM | 0.569 nM |
| O=C(Nc1ccc(OC2CCN(C(=O)c3nccs3)CC2)cc1)C1CN(c2ccnnc2)C1 [Example 283, 1-(pyridazin-4-yl)-N-(4-{[1-(1,3-thiazol-2-ylcarbonyl)piperidin-4-yl]oxy}phenyl)azetidine-3-carboxamide] | 72.3 nM | 32.2 nM |
| O=C(Nc1ccc(C2CCN(C(=O)c3cccc(Cl)c3)CC2)cc1)C1CN(c2cccnn2)C1 [Example 351, N-{4-[1-(3-chlorobenzoyl)piperidin-4-yl]phenyl}-1-(pyridazin-3-yl)azetidine-3-carboxamide] | 37.1 nM | 0.765 nM |
| O=C(Nc1ccc(C2CCN(C(=O)CC(F)(F)F)CC2)cc1)C1CN(c2cccnc2)C1 [Example 122, 1-(pyridin-3-yl)-N-{4-[1-(3,3,3-trifluoropropanoyl)piperidin-4-yl]phenyl}azetidine-3-carboxamide] | 7.94 nM | 0.169 nM |
| Cc1ncccc1N1CC(C(=O)Nc2ccc(C3CCN(C(=O)CC4CCCCC4)CC3)cc2)C1 [Example 179, N-{4-[1-(cyclohexylacetyl)piperidin-4-yl]phenyl}-1-(2-methylpyridin-3-yl)azetidine-3-carboxamide] | 99.2 nM | 70.7 nM |
| O=C(Nc1ccc(C2CCN(C(=O)c3ccccc3O)CC2)cc1)C1CN(c2cccnn2)C1 [Example 342, N-{4-[1-(2-hydroxybenzoyl)piperidin-4-yl]phenyl}-1-(pyridazin-3-yl)azetidine-3-carboxamide] | 13.1 nM | 0.698 nM |
| CC(C)(O)C(=O)N1CCC(Oc2ccc(NC(=O)C3CN(c4cccnc4)C3)cc2)CC1 [Example 31, N-(4-{[1-(2-hydroxy-2-methylpropanoyl)piperidin-4-yl]oxy}phenyl)-1-(pyridin-3-yl)azetidine-3-carboxamide] | 135 nM | 0.693 nM |
| O=C(Nc1ccc(C2CCN(C(=O)CC(F)(F)F)CC2)cc1)C1CN(c2cccnn2)C1 [Example 332, 1-(pyridazin-3-yl)-N-{4-[1-(3,3,3-trifluoropropanoyl)piperidin-4-yl]phenyl}azetidine-3-carboxamide] | 21.9 nM | 0.699 nM |
| O=C(Nc1ccc(OC2CCN(C(=O)c3ccc(Cl)cc3)CC2)cc1)C1CN(c2ccnnc2)C1 [Example 297, N-(4-{[1-(4-chlorobenzoyl)piperidin-4-yl]oxy}phenyl)-1-(pyridazin-4-yl)azetidine-3-carboxamide] | 104 nM | 47 nM |
| O=C(Nc1ccc(OC2CCN(C(=O)c3cccc(F)c3)CC2)cc1)C1CN(c2ccnnc2)C1 [Example 286, N-(4-{[1-(3-fluorobenzoyl)piperidin-4-yl]oxy}phenyl)-1-(pyridazin-4-yl)azetidine-3-carboxamide] | 127 nM | 66.4 nM |
| Cc1ncccc1N1CC(C(=O)Nc2ccc(C3CCN(C(=O)c4cccnn4)CC3)cc2)C1 [Example 158, 1-(2-methylpyridin-3-yl)-N-{4-[1-(pyridazin-3-ylcarbonyl)piperidin-4-yl]phenyl}azetidine-3-carboxamide] | 2900 nM | 224 nM |
